The target in one data set is mushroom tyrosinase (Agaricus bisporus, UniProt C7FF04). Description: Tyrosinase inhibition assay (L-DOPA to dopachrome). Type of data set: biochemical. The note with it: eight different dosages; <100 ppm furanocoumarins; FIG. 4.
Data set [1] can be described thus: Percutaneous absorption ex-vivo test. The note with it: 0.5% formulation concentration, single application, over 48 hours. Type of data set: in vitro ADME, human. From the text:
The partition coefficient of a chemical compound provides a thermodynamic measure of its hydrophilicity/lipophilicity balance and thus its potential bioavailability. […] The skin penetration of the active compound—bakuchiol in a skin care cream was quantified in an ex-vivo test on isolated human skin. […] In certain embodiments, the disclosed compositions comprise a skin penetration enhancer.
Two natural bakuchiol compositions comprising 86.54% bakuchiol and 77.02% bakuchiol and a combined total of less than 100 ppm psoralen and angelicin (isopsoralen) were formulated in a cosmetic vehicle or complicated skin care cream and tested on in vitro models or in human clinical trials for their safety profile.

Data set [2] relates to subjects with PIH related to acne. In words: Double blind placebo and positive controlled study for PIH related to acne (Example 11). Type of data set: in vivo, human. The note with it: for PIH grade, mean: cream twice a day to the face. As to the method: The safety and efficacy of a 0.5% (wt/wt) cream of bakuchiol (UP256) was evaluated in a double blind placebo and positive controlled study for the treatment of PIH related to acne. The study evaluated a bakuchiol cream at 0.5% concentration, a 2% Salicylic acid cream and a placebo cream (Vehicle) in an Asian population. The participants were instructed to apply the study creams to the face twice a day (AM/PM). Study participants were given instructions for application and provided with sunscreen.
The study population consisted of male and female subjects older than 18 and younger than 40 years and in generally good health as determined by a medical history. The bakuchiol study arm enrolled 18 subjects, the Salicylic acid (SAL) study arm enrolled 20 subjects, and the placebo study arm enrolled 19 subjects.
The PIH grade is a measure of the severity of the hyperpigmentation (higher number=more severe pigmentation).
Primary Study Objectives: • 1. PIH IGA Time Frame: Baseline and weeks 2, 4 and 8 • 2. PIH % Distribution Time Frame: Baseline and weeks 2, 4 and 8
PIH efficacy was evaluated based on changes from baseline (p<0.05) and over other treatment groups (p<0.05) using t-test or/and ANOVA.
Subject's Assessment questionnaires and Tolerability Assessments were collected at Baseline and weeks 2, 4, and 8. Urine pregnancy tests for females of childbearing potential were collected at Baseline and week 8.
The following data was collected: • 1. Change from baseline in PIH Severity; • 2. Change from baseline in the PIH Grade; and • 3. Change from baseline in the Lesion counts
The data was analyzed from Investigator evaluations at each visit and from photographs taken at the specified time points. The photographs from baseline, week 4, and week 8 were evaluated by a second group of investigators and two independent dermatologists before the study was unblended to further confirm that the population met criteria. The data analyzed is based on confirmed evaluations, there was no photo for week two therefore week two data is not included in the analysis.

The subject of data set [3] is acne lesions and Post Inflammatory Hyperpigmentation. The note with it: OTC drugs, Studies 1-3, 10 or 12 week studies; cited from earlier work.
[4] abbreviates: questionnaire and investigator safety evaluation, count.

This is an account of results in patent publication US11253486B2, “Bakuchiol compositions for treatment of post inflammatory hyperpigmentation” (Unigen, Inc., priority 2011, dated 2022).

Chain of mushroom tyrosinase (C7FF04 2-392): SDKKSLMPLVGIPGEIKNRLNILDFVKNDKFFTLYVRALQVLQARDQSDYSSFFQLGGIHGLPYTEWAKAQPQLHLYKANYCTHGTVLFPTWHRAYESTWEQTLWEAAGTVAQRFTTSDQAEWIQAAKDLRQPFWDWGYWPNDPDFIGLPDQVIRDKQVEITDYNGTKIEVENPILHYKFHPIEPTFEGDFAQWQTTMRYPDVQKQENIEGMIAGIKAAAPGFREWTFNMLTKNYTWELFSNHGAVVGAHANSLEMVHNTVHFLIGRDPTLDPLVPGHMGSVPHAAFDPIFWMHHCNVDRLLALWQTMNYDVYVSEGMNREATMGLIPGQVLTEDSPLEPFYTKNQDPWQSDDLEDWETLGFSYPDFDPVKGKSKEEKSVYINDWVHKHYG
Protocol for mushroom tyrosinase: A tyrosinase inhibition assay was carried out using the method reported by Jones et al. (2002) Pigment. […] Using this method, the conversion of L-Dopa, a substrate of tyrosinase, into dopachrome was followed by monitoring absorption at 450 nm. Tyrosinase was prepared in 50 mM potassium phosphate buffer, pH 6.8 (assay buffer) at 2000 U/ml and stored at −20° C. in 1 ml aliquots prior to use. For use in assays, stock enzyme solutions were thawed and diluted to 200 U/ml with assay buffer. A 2 mM working solution of substrate, L-DOPA, was prepared in assay buffer for each assay. Samples were dissolved in 10% DMSO (0.5 ml) and diluted to 5 ml with assay buffer. The reaction mixture comprised 0.050 ml 2 mM L-DOPA, 0.050 ml 200 U/ml mushroom tyrosinase and 0.050 ml inhibitor. Reaction volume was adjusted to 200 μl with assay buffer. Assays were performed in 96 well Falcon 3097 flat-bottom microtiter plates (Beckton Dickinson, N.J.). Appearance of dopachrome was measured with a WALLAC 1420 Multilable Counter (Turku, Finland). Average velocity was determined from linear enzyme rate as measured by change in absorbance (ΔA450) at 450 nm per minute. Percent inhibition of tyrosinase by test samples was determined by comparison of absorbance of samples versus control using formula (1): (Negative control absorption−sample absorption)/Negative control absorption×100 (1)

Regarding `C=CC(C)(/C=C/c1ccc(O)cc1)CCC=C(C)C` (centres unmarked) [bakuchiol], the tyrosinase inhibition activity entry at mushroom tyrosinase is reported as “no tyrosinase inhibition function”. In addition, in data set [1], the “skin penetration / percutaneous absorption” value is “good skin penetration and bioavailability”.

In the case of `O=C(O)c1ccccc1O` [Salicylic Acid, Salicylic acid], the “Inflammatory acne lesions, mean” value in data set [2] (Baseline) is on record as 11.2; in data set [2] (Week 4), 9.25; in data set [2] (Week 8), 8.65. In addition, the results for the “PIH grade, mean” value in data set [2] (Baseline), in data set [2] (Week 4) and in data set [2] (Week 8) were 3.15, 3.2 and 3.2, respectively. The “Subject assessment: Itching/Burning” value in data set [2] (setting [4]) is 4. Further, the “Subject assessment: Skin Discomfort” value in data set [2] (setting [4]) came to 2.

As for `O=C(OOC(=O)c1ccccc1)c1ccccc1` [Benzoyl peroxide (5%), Benzoyl peroxide], in data set [3], the “Improvement of Post Inflammatory Hyperpigmentation” value is given as 0, the “Mean percent reduction in inflammatory lesion counts” value was 32%, the “Mean percent reduction in non-inflammatory lesion counts” value is on record as 22% and the “Mean percent reduction in total lesion counts” value is 28%.
